We go through 121 compounds from a melting point compilation (Tetko et al.).

Each structure is given as a SMILES string.

By melting point is commonly meant the temperature of the solid-liquid transition.

`CCCn1c(=O)[nH]c(=O)c2c(C(=O)O)cc(-c3ccccc3)nc21` displayed a melting point of 230 to 232 °C. The value for `COc1ccc(OC)c(NC(=O)CCl)c1` was 169 to 171 °C; that for `C#CCOc1ncccc1C(=O)O` was 120 to 122 °C; that for `Cc1ccc2c(C3=CCNCC3)c[nH]c2c1` was 178 to 180 °C. The value for `CNS(=O)(=O)c1ccc2c(c1)NCC2` was 86 to 88 °C; that for `O=C(O)c1cc(S(=O)(=O)Nc2ccccc2F)c[nH]1` was 207 to 209 °C.

Take `N#CCC(=O)N1CCSCC1`: the melting point was in the range of 103 to 105 °C. The value for `CCN(CCO)c1ccc(NS(=O)(=O)c2ccc(N)cc2)cc1` was 114 to 116 °C. The value for `CC(=O)Nc1sc2c(c1C(=O)O)CCCC2` was 210 to 212 °C.

`OCc1nnc(Cl)s1` displayed a melting point of 51 to 53 °C. The value for `O=C(O)C1CCN(c2nc3ccccc3o2)CC1` was 147 to 149 °C; that for `COc1cccc(CC(C(=O)O)n2nnnc2C)c1` (stereo unspecified) was 125 to 127 °C; that for `Cn1ccc2c1C(=O)NCC2` was 71 to 73 °C.

The compound `FC(F)(F)c1cc[nH]n1` came in with a melting point of 45 to 47 °C. In the case of `CC(SCc1nc2ccccc2c(=O)[nH]1)C(=O)O` (stereo unspecified), the melting point lay in the range of 204 to 206 °C. The value for `Cc1cc(F)cc2c(=O)c(C(=O)O)c[nH]c12` was 289 to 291 °C; that for `O=C1CCC2(C(=O)O)Sc3ccccc3N12` (stereo unspecified) was 225 to 227 °C. The value for `Cn1ccnc1C(O)(c1nccn1C)C1CC1` was 166 to 168 °C; that for `COC(=O)CCNc1ccc(C)cc1` was 59 to 61 °C. The value for `CNCC1CCN(CC(O)c2ccccc2)CC1` (stereo unspecified) was 47 to 49 °C. For `O=C(O)c1ccc(S(=O)(=O)Nc2ccccc2Cl)cc1`, the melting point lay within 111 to 113 °C. With `CN(c1ccc(O)cc1)S(=O)(=O)c1ccccc1` the figure was 131 to 133 °C. `O=C(O)Cn1cnc2ccccc2c1=O` yielded a melting point of 241 to 243 °C. With `COc1cc(C=O)cc(Cl)c1OC(F)F`, the melting point lay within 75 to 77 °C. With `O=C(O)Cc1cc(Cl)ccc1Cl` the figure was 101 to 103 °C; with `C#CCn1cnc2c(N)ncnc21`, 184 to 186 °C. With `COc1cc(SC#N)ccc1O` the figure was 78 to 80 °C; with `CC(=O)c1cccc(N2C(=O)C=CC2=O)c1`, 104 to 106 °C. The value for `COc1ccc2ccc(-c3nn(-c4ccccc4)cc3C(=O)O)cc2c1` was 254 to 256 °C.

`COCCNC(=O)C(C)Cl` (stereo unspecified) yielded a melting point of 28 to 30 °C. In turn, `C=Cn1ccnc1CO` displayed a melting point of 103 to 105 °C.

With `Nc1nc2c(s1)CN(Cc1ccccc1)CC2`, the melting point fell in the range of 95 to 98 °C.

Compound `COCCCNc1c(N)n(CC(C)C)c(=O)[nH]c1=O` showed a melting point of 179 to 181 °C. With `COC(C)(C)C(N)=NO` the figure was 104 to 106 °C; with `CCCNC(=O)c1ccc(Cl)nc1`, 108 to 110 °C.

`COc1ccc(S(=O)(=O)N(C)C)cc1N` came in with a melting point of 192 to 194 °C. With `CC(N)c1ccc(N2CCCC2=O)cc1` (stereo unspecified) the figure was 62 to 64 °C.

`CCCCN1C(=O)c2ccc(C(=O)O)cc2C1=O` had a melting point of 152 to 154 °C.

Regarding `O=C(O)CCn1nc(-c2cccs2)oc1=O`, the melting point lay in the range of 146 to 148 °C.

As for `CCN(CC)S(=O)(=O)c1cc(C)c(C)c(N)c1`, the melting point is 147 to 149 °C. With `COC(=O)CCOc1ccc(N)cc1` the figure was 51 to 53 °C; with `O=C(O)Cn1ccc(=O)[nH]c1=O`, 279 to 281 °C; with `O=C(O)c1csc(-c2cc3ccccc3o2)n1`, 242 to 244 °C.

On to `O=S(CCCl)c1cc(Cl)ccc1Cl` (stereo unspecified), for which the melting point is 68 to 70 °C. The value for `O=C(c1ccc(Br)cc1)N1CCNCC1` was 79 to 81 °C; that for `O=C(O)C(Oc1ccccc1Br)c1ccccc1` (stereo unspecified) was 143 to 145 °C; that for `Nc1cc(S(=O)(=O)Nc2ccccc2Cl)ccc1O` was 195 to 197 °C. With `CC(=O)N(C)CC(=O)O` the figure was 137 to 139 °C; with `O=c1[nH]c(CCl)nc2sc(-c3ccccc3)cc12`, 286 to 288 °C. The compound `O=C(O)c1ccc2[nH]c(-c3ccc(Cl)cc3)nc2c1` had a melting point of 319 to 321 °C.

`Cc1c(C(=O)O)oc2c(Br)cc(Cl)cc12` showed a melting point of 279 to 281 °C.

In turn, `CC(=O)Nc1cc(C)c(C)cc1[N+](=O)[O-]` registered a melting point of 189 to 191 °C.

`COCc1nnc(-c2cccc(C(=O)O)c2)o1`: the melting point is 139 to 141 °C. The value for `CC(N)(C(N)=O)c1cccc(C(F)(F)F)c1` (stereo unspecified) was 84 to 86 °C.

In the case of `O=C(O)c1cc(-c2ccc(Cl)s2)[nH]n1`, the melting point lay within 231 to 233 °C.

On to `O=S(=O)(c1cccc(CO)c1)N1CCOCC1`, for which the melting point fell in the range of 96 to 98 °C.

In the case of `O=C(NC1(C(=O)O)CCCC1)c1ccc2[nH]ncc2c1`, the melting point was in the range of 285 to 287 °C. With `CCN1CCN(S(=O)(=O)c2cccc(N)c2)CC1` the figure was 94 to 96 °C; with `Cc1ccccc1-n1ncc(C(=O)O)c1N`, 159 to 161 °C.

Regarding `CN(C)c1ccc(C(=O)O)c(F)c1`, the melting point was 199 to 201 °C. Take `COc1ccc(OC)c(CBr)c1`: the melting point fell in the range of 77 to 79 °C. With `CNS(=O)(=O)c1ccccc1N` the figure was 53 to 55 °C; with `Cc1ccc(NCCC#N)cc1`, 110 to 112 °C; with `NC(=O)c1cncc(O)c1`, 249 to 251 °C. `CC(=O)c1c(C)nc2sccn12` gave a melting point of 132 to 134 °C.

Regarding `O=C(O)c1cc(Cl)nc(Oc2ccc(Br)cc2)c1`, the melting point fell in the range of 213 to 215 °C. The value for `Cc1cccc(N2CCN(CCN)CC2)c1C` was 60 to 62 °C; that for `O=C(O)CCc1ccc(C(F)(F)F)cc1` was 106 to 110 °C. With `Cc1cc(C(=O)O)nn1-c1ccc(F)cc1` the figure was 152 to 154 °C; with `CC(=O)c1ccc(N)nc1`, 107 to 109 °C. Turning to `Nc1ccnn1Cc1ccc(Br)cc1`, the melting point lay within 97 to 99 °C. In turn, `CC(=CC(=O)O)c1ccc(F)cc1F` registered a melting point of 157 to 159 °C. With `O=C(O)CCSc1nc2ccccc2s1` the figure was 149 to 151 °C; with `NS(=O)(=O)c1cccs1`, 142 to 144 °C. The value for `CS(=O)(=O)c1ccc2nnn(O)c2c1` was 192 to 194 °C; that for `Cc1cc(C(=O)O)c(N)c([N+](=O)[O-])c1` was 249 to 251 °C. With `O=C(CN1CCCC(C(=O)O)C1)Nc1ccccc1` (stereo unspecified) the figure was 100 to 102 °C; with `COC(=O)c1ccc(C(F)(F)F)cc1N`, 58 to 60 °C; with `COc1ccc(S(=O)(=O)NC2CCOCC2)cc1N`, 164 to 166 °C. For `NNc1ncnc2sc(-c3ccccc3)cc12`, the melting point was 263 to 265 °C. The value for `Nc1cccc(C(=O)Nc2ccc(Br)cn2)c1` was 153 to 155 °C. The compound `OC1CNCC1N1CCCC1` (stereo unspecified) displayed a melting point of 82 to 84 °C. The value for `NC(=O)COc1ccc(Cl)cc1S(N)(=O)=O` was 214 to 216 °C; that for `Cn1nccc1CO` was 58 to 60 °C; that for `COc1ccc(Oc2ccc(C=O)cc2[N+](=O)[O-])cc1` was 67 to 69 °C. The value for `Cc1cccc(NS(=O)(=O)c2ccc(N)cc2)n1` was 223 to 225 °C; that for `Cc1cc(C)c2nc(C3CC3)cc(C(=O)O)c2c1` was 207 to 209 °C; that for `CCCc1nc2ccccc2c(C(=O)O)c1CC` was 222 to 224 °C. `Nc1ccc(S(=O)(=O)Nc2ccccc2Cl)cc1N` displayed a melting point of 203 to 205 °C. `CC(Cl)c1cn(-c2ccccc2)nn1` (stereo unspecified) returned a melting point of 69 to 71 °C. With `O=C(O)c1ccc(COc2ccccc2)o1` the figure was 169 to 171 °C. As for `Nc1cc(-c2cccc(Br)c2)no1`, the melting point was 122 to 124 °C. `Cc1ccc(OC(C)C(=O)O)cc1` (stereo unspecified) registered a melting point of 101 to 103 °C.

In the case of `O=C(O)CCc1nc(-c2ccoc2)no1`, the melting point is 143 to 145 °C. The value for `O/N=C(/Cc1nc2ccccc2n1C(F)F)c1ccccc1` was 165 to 167 °C; that for `O=C(O)c1cn(-c2cccc(Cl)c2F)nn1` was 139 to 141 °C.

In turn, `CCSc1cc(Br)ccc1C=O` yielded a melting point of 50 to 52 °C. With `CC(C)n1cnc2cc(C(=O)O)ccc21` the figure was 216 to 218 °C. The value for `Cc1ccc2c(CC#N)c[nH]c2c1` was 115 to 117 °C; that for `O=Cc1csc(-c2cccc(Br)c2)n1` was 99 to 101 °C. The value for `CCOC(=O)C1=NN(c2ccc(Cl)cc2)C(=O)C1` was 141 to 143 °C. `Cc1nccn1-c1ccc(C(F)(F)F)cc1N` yielded a melting point of 183 to 185 °C. Compound `Cc1ccccc1NC(=O)NN` displayed a melting point of 141 to 143 °C. The value for `NC(=O)NCc1cccc(F)c1` was 134 to 136 °C. With `Sc1nnc(COc2ccccc2Cl)o1` the figure was 135 to 137 °C; with `N#Cc1cccc(Oc2ccc(N)cc2)c1`, 39 to 41 °C; with `COc1cccc(NC(=O)OCC(F)(F)F)c1`, 58 to 60 °C. With `CN(C)c1cc(C(=O)O)c2ccccc2n1` the figure was 259 to 261 °C; with `Cc1cc(Br)ccc1SCC(=O)O`, 125 to 127 °C.

As to `Cc1ccn2c(C=O)cnc2c1`, the melting point lay in the range of 80 to 82 °C. The value for `COC(=O)c1cc(Oc2ccc(Cl)cc2)ccc1N` was 74 to 76 °C. The value for `O=C(CO)Nc1cccc([N+](=O)[O-])c1` was 182 to 184 °C; that for `O=C1CC(=O)N(c2cccnc2)C(=S)N1` was 229 to 231 °C. The value for `Cc1ccn2cc(C(=O)O)nc2c1` was 225 to 229 °C.

Regarding `Cc1cc(-c2cc(C(=O)O)c3c(C)noc3n2)c(C)o1`, the melting point lay in the range of 266 to 268 °C. `Cc1cccc(OCC(=O)N2CCNCC2)c1C` yielded a melting point of 86 to 88 °C. `N=c1nc[nH]c2c1ncn2CCC(N)=O` registered a melting point of 255 to 257 °C. With `CC1CCCC(NC(=O)CCl)C1C` (stereo unspecified) the figure was 125 to 127 °C. The value for `O=C1C=CC(=O)N1CCc1ccccc1F` was 106 to 108 °C; that for `O=C(O)c1ccc(OCC(F)(F)F)cc1` was 200 to 202 °C. The value for `CN(C)C(=O)Cn1ccc(N)n1` was 58 to 60 °C.
